System: P. falciparum (FCR3)
Assay: Enhancement of chloroquine potency: [3H]-hypoxanthine incorporation into chloroquine-resistant P. falciparum (FCR3) in vitro
Format: cell-based, Plasmodium falciparum
Conditions: chloroquine IC50 with compound at 200 ng/ml as percent of chloroquine-alone IC50

| SMILES | Percent of IC50 of Chloroquine Alone [%] |
| --- | --- |
| CN(C)C[C@H]1Cc2ccccc2[C@H]1Oc1ccc2c(c1)OCO2.O=C(O)C(=O)O (relative stereo) [1 0 2 --OCH2 O-- --CH2 -- CH3 CH3 O cis, CIS 1-(1,3-benzodioxol-5-yloxy)-2,3-dihydro-N,N-dimethyl-1H-indene-2-methanamine ethanedioate (1:1)] | 25 |
| CNC[C@@H]1Cc2ccccc2[C@@H]1Oc1ccccc1C(F)(F)F (relative stereo) [1 0 1 O--CF3 --CH2 -- CH3 H O cis, CIS-2,3-dihydro-N-methyl-1-(2-trifluoromethylphenoxy)-H-indene-2-methanamine ethanedioate (1:1)] | 22 |
| CN(C)C[C@H]1Cc2ccccc2[C@@H]1Oc1ccc(Cl)c(Cl)c1 (relative stereo) [1 0 2 m,p-(Cl)2 --CH2 -- CH3 CH3 O trans] | 43 |
| CN(C)C[C@@H]1Cc2ccccc2[C@H]1Oc1ccc2c(c1)OCO2.O=C(O)C(=O)O (relative stereo) [TRANS 1-(1,3-benzodioxol-5-yloxy)-2,3-dihydro-N,N-dimethyl-1H-indene-2-methanamine ethanedioate (1:1)] | 75 |
| CN(C)C[C@H]1Cc2ccccc2[C@H]1Sc1ccccc1.O=C(O)C(=O)O (relative stereo) [1 0 0 -- --CH2 -- CH3 CH3 S cis, cis-2,3-dihydro-N,N-dimethyl-1-(phenylthio)-1H-indene-2-methanamine, ethanedioate] | 14 |
| CN(C)C[C@@H]1Cc2ccccc2[C@@H]1Oc1ccc(Br)cc1 (relative stereo) [1 0 1 p-Br --CH2 -- CH3 CH3 O cis, CIS-1-(4-romophenoxy)-2,3-dihydro-N,N-dimethyl-1H-indene-2-methanamine ethanedioate] | 68 |
| CN(C)CC1Cc2ccccc2C1Oc1ccccc1 (stereo not drawn) [1 0 0 -- --CH2 -- CH3 CH3 O --, 2,3-dihydro-N,N-dimethyl-1-phenoxy-1H-indene-2-methanamine] | 10 |
| CNC[C@H]1Cc2ccccc2[C@H]1Oc1ccccc1OC (relative stereo) [1 0 1 O--OCH3 --CH2 -- CH3 H O --, cis-2,3-dihydro-1-(2-methoxyphenoxy)-N-methyl-1H-indene-2-methanamine] | 13 |
| CN(C)C[C@H]1Cc2ccccc2[C@H]1Oc1ccc(C(F)(F)F)cc1.Cl (relative stereo) [1 0 1 p-CF3 --CH2 -- CH3 CH3 O cis, cis-2,3-dihydro-N,N-dimethyl-1-[4-(trifluoromethyl)-phenoxy]-1H-indene-2-methanamine hydrochloride] | 55 |

System: chloroquine-resistant P. falciparum (FCR3)
Assay: Isobologram analysis of synergism with chloroquine, hypoxanthine incorporation (FIG. 1)
Format: cell-based, Plasmodium falciparum
Conditions: IC50 for hypoxanthine incorporation
Experimental: FIG. 1 illustrates the synergism of 1-(3,4-dichloro-phenoxy)-2,3-dihydro-N,N-dimethyl-1H-Indene-2-methanamine and chloroquine against chloroquine-resistant P. falciparum (FCR3). Isobologram analysis was carried out according to the method of Martin, et al., (1987) Science 235, 899-901 and Berenbaum, (1978) Journal of Infectious Diseases 137, 122-130. […] The X-axis is the IC50 concentration of drug which inhibits hypoxanthine incorporation by 50%) of chloroquine in the absence or presence of 1-(3,4-dichlorophenoxy)-2,3-dihydro-N,N-dimethyl-1H-Indene-2-methanamine while the Y-axis is the IC50 for 1-(3,4-dichlorophenoxy)-2,3-dihydro-N,N-dimethyl-1H-Indene-2-methanamine in the absence or presence of chloroquine.
P. falciparum (clone D6, chloroquine-sensitive; strain FCR3, chloroquine-resistant; and clone W2, multidrug-resistant) was grown in vitro by the method of Trager and Jensen, (1976) Science 193, 673-675.

| SMILES | synergism of the combination with chloroquine |
| --- | --- |
| CN(C)CC1Cc2ccccc2C1Oc1ccc(Cl)c(Cl)c1 (stereo not drawn) [1-(3,4-dichlorophenoxy)-2,3-dihydro-N,N-dimethyl-1H-Indene-2-methanamine] | highly synergistic |

System: P. falciparum
Assay: not given
Conditions: recently reported; by interfering with riboflavin metabolism; cited from earlier work

| SMILES | P. falciparum growth |
| --- | --- |
| CN(C)CCC=C1c2ccccc2CCc2ccccc21 [amitryptyline] | suppress P. falciparum growth |
| CN(C)CCCN1c2ccccc2CCc2ccccc21 [imipramine] | suppress P. falciparum growth |

From patent publication US5134168A, “Phenoxy and phenylthio, amino substituted benzocycloalkane derivatives in the treatment and prevention of drug-resistant protozoal infections” (Merrell Dow Pharmaceuticals Inc., priority 1991, dated 1992)
